# Data taken from ChEMBL document CHEMBL2010730, “An example of designed multiple ligands spanning protein classes: dual MCH-1R antagonists/DPPIV inhibitors” (Bioorg Med Chem Lett, 2012).
# pIC50, pKi: −log10 of the molar value.
# Tests used:
# [1] = molecular target: T1, Melanin-concentrating hormone receptor 1 (Homo sapiens, UniProt Q99705); assay: Antagonist activity at human MCH1R expressed in CHO cells assessed as inhibition of MCH-induced response; assay type: functional, cell-based
# [2] = molecular target: T1, Melanin-concentrating hormone receptor 1; assay: Antagonist activity at human MCH1R expressed in CHO cells assessed as inhibition of MCH-induced response at 5 uM; assay type: functional, cell-based
# [3] = molecular target: T2, Dipeptidyl peptidase 4 (Homo sapiens, UniProt P27487); assay: Inhibition of DPP4
# T2 sequence (P27487 whole entry): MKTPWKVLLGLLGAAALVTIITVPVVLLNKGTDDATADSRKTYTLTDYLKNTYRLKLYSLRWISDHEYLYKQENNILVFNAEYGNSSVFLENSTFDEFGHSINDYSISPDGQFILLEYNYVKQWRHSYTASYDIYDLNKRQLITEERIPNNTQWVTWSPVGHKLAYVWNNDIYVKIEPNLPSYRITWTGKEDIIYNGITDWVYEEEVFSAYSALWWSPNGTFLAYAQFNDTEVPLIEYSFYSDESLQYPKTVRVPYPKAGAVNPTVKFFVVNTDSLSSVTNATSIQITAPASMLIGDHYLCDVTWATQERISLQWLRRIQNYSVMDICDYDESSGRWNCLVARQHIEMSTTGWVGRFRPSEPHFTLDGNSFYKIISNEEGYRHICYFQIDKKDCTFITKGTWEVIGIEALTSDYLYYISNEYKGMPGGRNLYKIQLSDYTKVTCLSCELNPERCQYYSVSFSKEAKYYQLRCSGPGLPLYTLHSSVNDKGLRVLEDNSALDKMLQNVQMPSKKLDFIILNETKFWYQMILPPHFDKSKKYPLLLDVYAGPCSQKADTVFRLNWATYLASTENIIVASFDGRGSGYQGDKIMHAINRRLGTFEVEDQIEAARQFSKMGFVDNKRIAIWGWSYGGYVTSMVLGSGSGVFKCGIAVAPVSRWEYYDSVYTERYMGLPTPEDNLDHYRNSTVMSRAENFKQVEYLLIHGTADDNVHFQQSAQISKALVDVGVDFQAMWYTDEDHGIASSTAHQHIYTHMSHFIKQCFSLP
# [4] = molecular target: T2, Dipeptidyl peptidase 4; assay: Inhibition of human recombinant DPP4 using H-Gly-Pro-7-amino-4-methylcoumarin as substrate assessed as inhibition of 7-amino-4-methylcoumarin formation after 30 mins by fluorimetry
# [5] = Lipophilicity, log D of the compound at pH 7.4; assay type: physicochemical; details: buffer
# [6] = molecular target: Voltage-gated inwardly rectifying potassium channel KCNH2 (Homo sapiens, UniProt Q12809)
# Voltage-gated inwardly rectifying potassium channel KCNH2, sequence (Q12809 whole entry): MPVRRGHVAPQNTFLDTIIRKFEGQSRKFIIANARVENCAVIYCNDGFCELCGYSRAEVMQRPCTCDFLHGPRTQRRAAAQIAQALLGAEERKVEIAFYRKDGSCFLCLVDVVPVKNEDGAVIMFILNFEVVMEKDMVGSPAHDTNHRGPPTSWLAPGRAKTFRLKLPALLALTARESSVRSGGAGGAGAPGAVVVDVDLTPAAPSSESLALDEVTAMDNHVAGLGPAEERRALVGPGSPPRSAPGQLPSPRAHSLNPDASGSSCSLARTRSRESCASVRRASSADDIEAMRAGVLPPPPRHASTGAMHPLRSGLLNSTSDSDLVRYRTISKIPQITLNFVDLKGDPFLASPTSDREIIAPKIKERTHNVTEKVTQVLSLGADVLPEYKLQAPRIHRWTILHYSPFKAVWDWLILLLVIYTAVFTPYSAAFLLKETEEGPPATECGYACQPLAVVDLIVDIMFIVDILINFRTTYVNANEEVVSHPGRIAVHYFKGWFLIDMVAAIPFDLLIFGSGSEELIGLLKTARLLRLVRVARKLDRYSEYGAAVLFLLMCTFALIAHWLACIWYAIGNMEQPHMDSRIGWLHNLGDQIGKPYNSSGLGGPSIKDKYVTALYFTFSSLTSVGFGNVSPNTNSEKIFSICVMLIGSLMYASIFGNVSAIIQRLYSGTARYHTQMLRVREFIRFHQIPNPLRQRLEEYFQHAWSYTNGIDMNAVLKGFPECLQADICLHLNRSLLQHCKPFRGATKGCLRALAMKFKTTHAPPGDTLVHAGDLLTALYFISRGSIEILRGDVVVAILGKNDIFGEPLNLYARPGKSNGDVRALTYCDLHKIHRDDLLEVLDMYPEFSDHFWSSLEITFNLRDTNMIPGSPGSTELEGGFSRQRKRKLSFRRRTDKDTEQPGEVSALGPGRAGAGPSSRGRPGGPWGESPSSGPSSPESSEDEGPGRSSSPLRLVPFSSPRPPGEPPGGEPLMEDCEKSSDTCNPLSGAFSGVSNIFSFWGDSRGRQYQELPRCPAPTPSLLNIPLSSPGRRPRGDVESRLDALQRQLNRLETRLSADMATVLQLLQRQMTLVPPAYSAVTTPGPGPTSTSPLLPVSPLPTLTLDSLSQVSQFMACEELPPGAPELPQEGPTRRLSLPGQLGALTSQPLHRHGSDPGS
# [7] = molecular target: Dipeptidyl peptidase 9 (Homo sapiens, UniProt Q86TI2); assay: Inhibition of DPP9
# Dipeptidyl peptidase 9, sequence (Q86TI2 whole entry): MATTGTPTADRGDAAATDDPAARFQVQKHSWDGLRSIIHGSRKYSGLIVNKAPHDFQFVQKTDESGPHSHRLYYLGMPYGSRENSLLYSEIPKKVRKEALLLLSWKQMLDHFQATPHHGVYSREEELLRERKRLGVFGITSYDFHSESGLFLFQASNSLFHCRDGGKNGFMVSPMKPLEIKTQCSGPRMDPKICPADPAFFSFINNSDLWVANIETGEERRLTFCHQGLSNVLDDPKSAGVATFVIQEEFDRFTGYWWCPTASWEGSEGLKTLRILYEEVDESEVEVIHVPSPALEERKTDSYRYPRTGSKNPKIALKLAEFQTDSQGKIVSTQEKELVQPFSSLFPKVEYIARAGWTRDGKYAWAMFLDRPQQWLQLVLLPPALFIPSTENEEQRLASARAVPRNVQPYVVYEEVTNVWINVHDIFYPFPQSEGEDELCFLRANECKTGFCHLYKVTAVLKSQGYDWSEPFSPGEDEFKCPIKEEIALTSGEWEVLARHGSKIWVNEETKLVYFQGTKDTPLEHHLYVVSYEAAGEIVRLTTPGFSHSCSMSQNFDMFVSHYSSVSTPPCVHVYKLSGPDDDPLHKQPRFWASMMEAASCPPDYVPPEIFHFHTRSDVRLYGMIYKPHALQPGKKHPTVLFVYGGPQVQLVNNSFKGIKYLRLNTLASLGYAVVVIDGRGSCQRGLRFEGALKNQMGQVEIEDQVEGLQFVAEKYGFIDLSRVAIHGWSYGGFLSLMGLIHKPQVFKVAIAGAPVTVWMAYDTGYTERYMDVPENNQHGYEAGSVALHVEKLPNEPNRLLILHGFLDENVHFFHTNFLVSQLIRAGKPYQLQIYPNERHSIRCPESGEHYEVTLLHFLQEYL
# [8] = molecular target: Dipeptidyl peptidase 8 (Homo sapiens, UniProt Q6V1X1); assay: Inhibition of DPP8
# Dipeptidyl peptidase 8, sequence (Q6V1X1 whole entry): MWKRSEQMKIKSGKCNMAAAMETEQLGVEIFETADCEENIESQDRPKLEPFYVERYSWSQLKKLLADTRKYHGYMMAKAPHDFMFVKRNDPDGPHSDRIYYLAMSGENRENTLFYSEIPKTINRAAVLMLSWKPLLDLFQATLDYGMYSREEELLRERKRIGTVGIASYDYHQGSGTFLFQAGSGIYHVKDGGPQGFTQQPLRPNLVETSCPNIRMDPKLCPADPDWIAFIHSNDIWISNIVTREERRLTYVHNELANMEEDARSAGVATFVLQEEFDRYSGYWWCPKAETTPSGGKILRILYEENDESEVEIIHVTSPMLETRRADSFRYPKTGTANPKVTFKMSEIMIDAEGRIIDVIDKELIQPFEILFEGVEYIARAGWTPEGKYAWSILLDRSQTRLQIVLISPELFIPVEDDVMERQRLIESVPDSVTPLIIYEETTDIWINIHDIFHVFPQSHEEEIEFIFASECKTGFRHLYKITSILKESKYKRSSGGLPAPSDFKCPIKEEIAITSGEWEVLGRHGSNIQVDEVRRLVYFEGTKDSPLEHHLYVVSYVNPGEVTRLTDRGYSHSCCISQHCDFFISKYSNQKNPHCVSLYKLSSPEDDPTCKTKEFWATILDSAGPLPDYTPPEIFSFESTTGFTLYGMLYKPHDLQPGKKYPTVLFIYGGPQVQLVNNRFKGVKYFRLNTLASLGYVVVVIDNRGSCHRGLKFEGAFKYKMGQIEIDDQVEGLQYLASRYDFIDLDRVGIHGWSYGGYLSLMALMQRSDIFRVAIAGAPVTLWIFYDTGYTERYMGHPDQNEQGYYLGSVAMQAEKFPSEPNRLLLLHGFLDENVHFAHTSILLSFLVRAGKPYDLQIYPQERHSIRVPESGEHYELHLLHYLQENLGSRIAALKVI
# [9] = molecular target: T1, Melanin-concentrating hormone receptor 1; assay: Antagonist activity at human MCH1R expressed in forskolin-stimulated CHO cells assessed as inhibition of MCH-induced cAMP accumulation after 90 mins; assay type: functional, cell-based
# T1 sequence (Q99705 whole entry): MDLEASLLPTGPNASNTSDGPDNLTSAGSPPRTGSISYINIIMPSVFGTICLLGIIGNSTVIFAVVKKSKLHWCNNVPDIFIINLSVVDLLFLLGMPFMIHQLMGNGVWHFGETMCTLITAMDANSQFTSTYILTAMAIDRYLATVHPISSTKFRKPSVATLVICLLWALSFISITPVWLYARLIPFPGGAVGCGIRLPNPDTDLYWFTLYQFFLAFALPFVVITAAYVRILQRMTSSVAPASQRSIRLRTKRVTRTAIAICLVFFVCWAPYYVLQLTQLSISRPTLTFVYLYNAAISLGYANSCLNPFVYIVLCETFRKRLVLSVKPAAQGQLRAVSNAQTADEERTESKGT
SMILES,pIC50 [1],inhibition [2] [%],pIC50 [4],also measured
N[C@H]1CN(c2ccc(CCNC(=O)c3ccc(OCC4CC4)cc3)cn2)C[C@@H]1c1cc(F)ccc1F,5.42,43,–,–
N[C@H]1CN(c2ccc(-n3ccnc(CCCc4ccccc4)c3=O)cn2)C[C@@H]1c1cc(F)ccc1F,< 5.52,52,–,–
CC(C)COc1ccc(CC(=O)Nc2ccc(N3C[C@H](c4cc(F)ccc4F)[C@@H](N)C3)nc2)cc1,–,35,–,–
N[C@H]1CN(c2ccc(-n3ccc(-c4ccccc4)cc3=O)cn2)C[C@@H]1c1cc(F)ccc1F,–,39,–,–
N[C@H]1CN(c2cc(-c3ccccc3)ncn2)CC[C@@H]1c1cc(F)c(F)cc1F,–,–,–,pKi [3]: 8.22
N[C@H]1CN(c2ccc(-n3ccc(OCc4ccccc4)cc3=O)cn2)C[C@@H]1c1cc(F)c(F)cc1F,6.96,–,5.96,logD [5]: 3.4; pIC50 [6]: 5.21
CCCCOc1ccc2c(c1)CCN(c1ccc(N3C[C@H](c4cc(F)ccc4F)[C@@H](N)C3)nc1)C2=O,5.40,44,–,–
N[C@H]1CN(c2ccc(-n3ccc(OCc4ccccc4)cc3=O)cn2)CC[C@@H]1c1cc(F)c(F)cc1F,6.36,–,6.46,pIC50 [7]: < 4.30; pIC50 [8]: < 4.30
N[C@@H]1CCN(c2ccc(-n3ccc(OCc4ccccc4)cc3=O)cn2)C1,7.70,–,< 4.00,pKi [9]: 8.22; pIC50 [7]: < 4.00; pIC50 [8]: < 4.00
N[C@H]1CN(c2ccc(-n3ccc(OCc4ccccc4)cc3=O)cn2)C[C@@H]1c1cc(F)ccc1F,6.85,104,5.78,–
